Laboratory results: the supplement of paper PMC10307832

Legend:
Assay in all cases: relative viability (nuclei count vs DMSO), 5 days (fraction); higher = more cells survive
NCI-H1299 = tested on: NCI-H1299
How it was run: (§1)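 Nuclei were stained with Hoechst during a one-step fixation (final 0.05% Triton X-100, 1% formaldehyde, 1 ug/ml Hoechst) carried out 5 days after dosing, then counted on 4× images. The cells, lung cancer lines in 1536-well plates, had been dosed by pin tool the day after seeding with one drug alone or a fixed anchor-drug dose plus five library-drug doses (not always all listed) in √10 steps. Relative viability is the nuclei count in treated wells divided by that in vehicle wells, and each value is the median of duplicate plates.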

NCI-H2405 = tested on: NCI-H2405
How it was run: as §1

NCI-H2009 = tested on: NCI-H2009
How it was run: as §1

NCI-H647 = tested on: NCI-H647
How it was run: as §1

LOU-NH91 = tested on: LOU-NH91
How it was run: as §1

NCI-H1703 = tested on: NCI-H1703
How it was run: as §1

IA-LM = tested on: IA-LM
How it was run: as §1

EBC-1 = tested on: EBC-1
How it was run: as §1

Calu-6 = tested on: Calu-6
How it was run: as §1

Cc1csc(=NC2CCCCC2)n1/N=C/c1ccc(O)c(O)c1O [MIM1] + CC(C)C[C@H](NC(=O)[C@H](Cc1ccccc1)NC(=O)c1cnccn1)B(O)O [Bortezomib] (partner 0.002 µM)
relative viability (NCI-H1299; first compound 0.2 µM): 1.01 | relative viability (NCI-H1299; first compound 0.6325 µM): 1.03 | relative viability (NCI-H1299; first compound 2 µM): 0.999 | relative viability (NCI-H1299; first compound 6.325 µM): 0.965 | relative viability (NCI-H1299; first compound 20 µM): 0.994 | relative viability (NCI-H2405; first compound 0.2 µM): 0.959 | relative viability (NCI-H2405; first compound 0.6325 µM): 1.01 | relative viability (NCI-H2405; first compound 2 µM): 0.961 | relative viability (NCI-H2405; first compound 6.325 µM): 0.788 | relative viability (NCI-H2405; first compound 20 µM): 0.358 | relative viability (NCI-H2009; first compound 0.2 µM): 1.01 | relative viability (NCI-H2009; first compound 0.6325 µM): 0.956 | relative viability (NCI-H2009; first compound 2 µM): 1.02 | relative viability (NCI-H2009; first compound 6.325 µM): 0.529 | relative viability (NCI-H2009; first compound 20 µM): 0.106 | relative viability (NCI-H647; first compound 0.2 µM): 1.05 | relative viability (NCI-H647; first compound 0.6325 µM): 0.878 | relative viability (NCI-H647; first compound 2 µM): 0.98 | relative viability (NCI-H647; first compound 6.325 µM): 0.769 | relative viability (NCI-H647; first compound 20 µM): 0.237 | relative viability (LOU-NH91; first compound 0.2 µM): 0.462 | relative viability (LOU-NH91; first compound 0.6325 µM): 0.53 | relative viability (LOU-NH91; first compound 2 µM): 0.447 | relative viability (LOU-NH91; first compound 6.325 µM): 0.35 | relative viability (LOU-NH91; first compound 20 µM): 0.267 | relative viability (NCI-H1703; first compound 0.2 µM): 0.386 | relative viability (NCI-H1703; first compound 0.6325 µM): 0.358 | relative viability (NCI-H1703; first compound 2 µM): 0.318 | relative viability (NCI-H1703; first compound 6.325 µM): 0.155 | relative viability (NCI-H1703; first compound 20 µM): 0.133 | relative viability (IA-LM; first compound 0.2 µM): 0.754 | relative viability (IA-LM; first compound 0.6325 µM): 0.792 | relative viability (IA-LM; first compound 2 µM): 0.783 | relative viability (IA-LM; first compound 6.325 µM): 0.275 | relative viability (IA-LM; first compound 20 µM): 0.0874 | relative viability (EBC-1; first compound 0.2 µM): 0.496 | relative viability (EBC-1; first compound 0.6325 µM): 0.569 | relative viability (EBC-1; first compound 2 µM): 0.647 | relative viability (EBC-1; first compound 6.325 µM): 0.324 | relative viability (EBC-1; first compound 20 µM): 0.242 | relative viability (Calu-6; first compound 0.2 µM): 1.05 | relative viability (Calu-6; first compound 0.6325 µM): 1.1 | relative viability (Calu-6; first compound 2 µM): 0.923 | relative viability (Calu-6; first compound 6.325 µM): 0.289 | relative viability (Calu-6; first compound 20 µM): 0.203

Cc1cn(-c2cc(NC(=O)c3ccc(C)c(Nc4nccc(-c5cccnc5)n4)c3)cc(C(F)(F)F)c2)cn1 [Nilotinib] + CC(C)C[C@H](NC(=O)[C@H](Cc1ccccc1)NC(=O)c1cnccn1)B(O)O [Bortezomib] (partner 0.002 µM)
relative viability (NCI-H1299; first compound 0.003162 µM): 1.07 | relative viability (NCI-H1299; first compound 0.01 µM): 1.05 | relative viability (NCI-H1299; first compound 0.03162 µM): 1.01 | relative viability (NCI-H1299; first compound 0.1 µM): 0.933 | relative viability (NCI-H2405; first compound 0.001 µM): 0.995 | relative viability (NCI-H2405; first compound 0.01 µM): 1.07 | relative viability (NCI-H2405; first compound 0.03162 µM): 0.762 | relative viability (NCI-H2405; first compound 0.1 µM): 0.553 | relative viability (NCI-H2009; first compound 0.001 µM): 0.937 | relative viability (NCI-H2009; first compound 0.003162 µM): 1.14 | relative viability (NCI-H2009; first compound 0.01 µM): 1.16 | relative viability (NCI-H2009; first compound 0.03162 µM): 1.06 | relative viability (NCI-H2009; first compound 0.1 µM): 0.218 | relative viability (NCI-H647; first compound 0.001 µM): 0.79 | relative viability (NCI-H647; first compound 0.003162 µM): 1.52 | relative viability (NCI-H647; first compound 0.03162 µM): 0.57 | relative viability (NCI-H647; first compound 0.1 µM): 0.951 | relative viability (LOU-NH91; first compound 0.001 µM): 0.523 | relative viability (LOU-NH91; first compound 0.003162 µM): 0.46 | relative viability (LOU-NH91; first compound 0.01 µM): 0.404 | relative viability (LOU-NH91; first compound 0.03162 µM): 0.473 | relative viability (LOU-NH91; first compound 0.1 µM): 0.524 | relative viability (NCI-H1703; first compound 0.001 µM): 0.232 | relative viability (NCI-H1703; first compound 0.003162 µM): 0.208 | relative viability (NCI-H1703; first compound 0.01 µM): 0.148 | relative viability (NCI-H1703; first compound 0.03162 µM): 0.141 | relative viability (NCI-H1703; first compound 0.1 µM): 0.125 | relative viability (IA-LM; first compound 0.001 µM): 0.616 | relative viability (IA-LM; first compound 0.003162 µM): 0.698 | relative viability (IA-LM; first compound 0.01 µM): 0.685 | relative viability (IA-LM; first compound 0.03162 µM): 0.808 | relative viability (IA-LM; first compound 0.1 µM): 0.714 | relative viability (EBC-1; first compound 0.001 µM): 0.488 | relative viability (EBC-1; first compound 0.003162 µM): 0.55 | relative viability (EBC-1; first compound 0.01 µM): 0.417 | relative viability (EBC-1; first compound 0.03162 µM): 0.437 | relative viability (EBC-1; first compound 0.1 µM): 0.241 | relative viability (Calu-6; first compound 0.001 µM): 0.934 | relative viability (Calu-6; first compound 0.003162 µM): 1.02 | relative viability (Calu-6; first compound 0.01 µM): 0.929 | relative viability (Calu-6; first compound 0.03162 µM): 1.02 | relative viability (Calu-6; first compound 0.1 µM): 1.01

CN1CCN(CCOc2cc(OC3CCOCC3)c3c(Nc4c(Cl)ccc5c4OCO5)ncnc3c2)CC1 [Saracatinib] + CC(C)C[C@H](NC(=O)[C@H](Cc1ccccc1)NC(=O)c1cnccn1)B(O)O [Bortezomib] (partner 0.002 µM)
relative viability (NCI-H1299; first compound 0.02 µM): 1.05 | relative viability (NCI-H1299; first compound 0.2 µM): 1.03 | relative viability (NCI-H1299; first compound 0.6325 µM): 1.01 | relative viability (NCI-H1299; first compound 2 µM): 1.09 | relative viability (NCI-H2405; first compound 0.02 µM): 1.03 | relative viability (NCI-H2405; first compound 0.2 µM): 0.749 | relative viability (NCI-H2405; first compound 0.6325 µM): 0.736 | relative viability (NCI-H2405; first compound 2 µM): 0.716 | relative viability (NCI-H2009; first compound 0.02 µM): 1.01 | relative viability (NCI-H2009; first compound 0.2 µM): 0.912 | relative viability (NCI-H2009; first compound 0.6325 µM): 1.03 | relative viability (NCI-H2009; first compound 2 µM): 0.747 | relative viability (NCI-H647; first compound 0.02 µM): 0.993 | relative viability (NCI-H647; first compound 0.2 µM): 0.677 | relative viability (NCI-H647; first compound 0.6325 µM): 0.757 | relative viability (NCI-H647; first compound 2 µM): 0.641 | relative viability (LOU-NH91; first compound 0.02 µM): 0.538 | relative viability (LOU-NH91; first compound 0.2 µM): 0.457 | relative viability (LOU-NH91; first compound 0.6325 µM): 0.521 | relative viability (LOU-NH91; first compound 2 µM): 0.533 | relative viability (NCI-H1703; first compound 0.02 µM): 0.304 | relative viability (NCI-H1703; first compound 0.2 µM): 0.314 | relative viability (NCI-H1703; first compound 0.6325 µM): 0.293 | relative viability (NCI-H1703; first compound 2 µM): 0.22 | relative viability (IA-LM; first compound 0.02 µM): 0.87 | relative viability (IA-LM; first compound 0.6325 µM): 1.31 | relative viability (IA-LM; first compound 2 µM): 0.909 | relative viability (EBC-1; first compound 0.02 µM): 0.553 | relative viability (EBC-1; first compound 0.2 µM): 0.484 | relative viability (EBC-1; first compound 0.6325 µM): 0.628 | relative viability (EBC-1; first compound 2 µM): 0.531 | relative viability (Calu-6; first compound 0.02 µM): 0.939 | relative viability (Calu-6; first compound 0.2 µM): 0.796 | relative viability (Calu-6; first compound 0.6325 µM): 0.807 | relative viability (Calu-6; first compound 2 µM): 0.656
